Measurements: publication PMC5997322, “Imaging c-Met expression using 18F-labeled binding peptide in human cancer xenografts” (PLoS ONE, 2018)
Residues, ends and D or L forms follow the SMILES beside them. *: point of attachment. Propanoyl(2-F) = CC(F)C(=O)*

Assays:
UM-SCC-22B cells [1] = assay: Cell uptake and blocking of [18F]FP-Met-pep1; assay type: cell-based, human
Procedure: (§1) For cell uptake measurement, UM-SCC-22B cells were seeded into a 24-well plate at a density of 1×10^5 cells per well and incubated with 18.5 kBq (0.5 μCi)/well of [^18F]FP-Met-pep1 at 37°C for 15, 30 and 60 min. Tumor cells were then washed twice with cold PBS and harvested by adding 250 μl of 0.1 N NaOH. Internalization assay was preformed similarly to the procedure described above. After 15, 30 and 60 min incubation of UM-SCC-22B cells with [^18F]FP-Met-pep1 at 37°C, the cells were washed twice with cold PBS and then incubated for 1 min with acid-washing-buffer (50 mM glycine, 0.1 M NaCl, pH = 2.8) to remove surface bound radioactive ligand. Thereafter, the cells were washed twice with cold PBS and harvested by adding 250 μl of 0.1 N NaOH. The blocking assay was preformed similarly to the procedure described above except that the unlabeled c-Met binding peptide was added into the wells (500 μg/well) and incubated for 15 min at 37°C before adding [^18F]FP-Met-pep1. For efflux experiment, all UM-SCC-22B cells in a 24-well plate were initially incubated with 18.5 kBq (0.5 μCi)/well of [^18F]FP-Met-pep1 at 37°C for 1 hour. […] The cell suspensions were collected and measured in a gamma counter and the cell uptake, internalization and efflux were expressed as the percentage of the added dose (%AD) after decay correction to EOB. […]

UM-SCC-22B cells [2] = assay: Internalization assay (acid wash); assay type: cell-based, human; conditions: 37°C, early phase, acid wash pH 2.8
Procedure: as §1

UM-SCC-22B cells [3] = assay: Efflux experiment; assay type: cell-based, human; conditions: UM-SCC-22B cells loaded 1 h at 37°C, then serum-free DMEM
Procedure: as §1

[4] = MicroPET imaging, ROI quantification; assay type: in vivo, mice; conditions: male, athymic nu/nu, mouse, iv, total radioactivity, 3.7 MBq i.v., mean ± SD, n = 4
Procedure: (§2) The human head and neck squamous carcinoma (HNSCC) cell line UM-SCC-22B (obtained from the University of Michigan) was used in this study. The cells were maintained in DMEM supplemented with 10% fetal bovine serum (FBS), 1% glutamine, 100 unit/ml penicillin, and […] streptomycin (Invitrogen, CA). Subcutaneous UM-SCC-22B tumor model was established in 4 to 6 weeks old male athymic nu/nu mice (Harlan Laboratories). Typically, 5 × 10^6 cells suspended in 50 μl of PBS were injected in the right or left front shoulder. Tumor growth was followed by caliper measurements of perpendicular diameters of the tumor. The tumor volume was estimated by the formula: tumor volume = a×b^2 /2, where a and b were the tumor length and width, respectively, in millimeters. Small animal PET studies were performed when the tumor volume reached 100 to 200 mm^3.
(§3) To perform a microCT scan by a high-resolution Inveon MicroCT scanner (Siemens Medical Solutions) before microPET scan, an anesthetized nude mouse bearing UM-SCC-22B tumor was mounted on a turntable bed that could be moved automatically in the axial direction. Whole body CT acquisition parameters were as follows: voltage 70 kVp, current 400 μA, angular sampling 1° per projection for a full 360° scan, and effective pixel size 58 μm. Scan time was approximately 12 min. The image was reconstructed in real-time by a modified Feldkamp cone bean algorithm with a Shepp-Logan filter and appropriate center offset determined prior to scanning. PET scans were performed using an Inveon microPET scanner (Siemens Medical Solutions). Tumor-bearing mice were anesthetized using isoflurane/O2 (1.5–2% v/v) and intravenously injected with 3.7 MBq (100 μCi) of [^18F]FP-Met-pep1 in a volume of 100 μl saline. For blocking experiments, [^18F]FP-Met-pep1 was co-injected with 500 μg of unlabeled Met-pep1 peptide. Each group contained four mice. The images were reconstructed by a three-dimensional ordered subsets expectation maximization (3D-OSEM) algorithm with maximum a posteriori (MAP) algorithm and the frame rates were 10 × 30s, 5 × 60s, 5 × 120s and 10 × 240s, and no correction was applied for attenuation or scatter. Static images at 1 h time point were also acquired as 10-min static images for region of interest (ROI) quantification. Image analysis was done using ASI Pro VMTM software. PET/CT images were co-registered and fused automatically with ASI software. For each microPET scan, three-dimensional ROIs were drawn over the tumor, liver, kidney, and muscle on decay-corrected whole-body coronal images. The average radioactivity concentration within a tumor or an organ was obtained from mean pixel values within the ROI volume, which were converted to counts per milliliter by using a pre-determined conversion factor.

[5] = test system: UM-SCC-22B tumor-bearing mice; assay: MicroPET imaging, ROI quantification; assay type: in vivo
Procedure: as §2, §3

[6] = Ex vivo biodistribution (gamma-counting); assay type: in vivo, mice; conditions: male, athymic nu/nu, mouse, iv, total radioactivity, 30 min after injection, mean ± SD, n = 4
Procedure: as §2
After microPET imaging, the blood of mice bearing UM-SCC-22B tumor xenografts was drawn from the orbital sinus, then mice were sacrificed by cervical dislocation and selected organs were excised. Blood, tumor, and major organs tissues were collected and weighed (wet weight). The radioactivity in each tissue was measured using a gamma-counter (Packard Instrument). Distribution of activity was calculated as percentage of injected dose per gram of organ (%ID/g). For each mouse, the radioactivity of the tissue samples was calibrated against a known aliquot of the injected dose and normalized to a body mass of 30 g. Values were expressed as mean ± SD for a group of four animals.

tissue uptake at 0.5 h ([4]; liver, 30 min post-injection, read-out: liver uptake (microPET)): 11.5 ± 0.78 %ID/g
tissue uptake at 0.5 h ([4]; tumor (UM-SCC-22B xenograft), UM-SCC-22B tumor, 30 min post injection, read-out: tumor uptake (microPET)): 4.72 ± 0.67 %ID/g
tissue uptake at 1 h ([4]; tumor (UM-SCC-22B xenograft), UM-SCC-22B tumor, 60 min post injection): 3.83 ± 0.55 %ID/g
tissue uptake at 2 h ([4]; tumor (UM-SCC-22B xenograft), UM-SCC-22B tumor, 120 min post injection): 3.11 ± 0.25 %ID/g
muscle uptake (microPET) ([5]; all timepoints (30, 60, 120 min)): very low uptake
radioactivity excreted, primarily through the renal pathway ([5]; within 2 h after injection, dynamic microPET (S1 Fig)): about 65%
tissue uptake at 0.5 h ([6]; blood, 3.7 MBq, without blocking, read-out: blood tracer concentration): 1.55 ± 0.48 %ID/g
tissue uptake at 0.5 h ([6]; blood, with 500 μg unlabeled peptide, read-out: blood tracer concentration, after blocking): 2.85 ± 0.76 %ID/g
tissue uptake at 0.5 h ([6]; kidney, 3.7 MBq, blocking state not clearly stated, read-out: kidney tracer accumulation (ex vivo)): 10.5 ± 0.53 %ID/g
tissue uptake at 0.5 h ([6]; liver, 3.7 MBq, blocking state not clearly stated, read-out: liver tracer accumulation (ex vivo)): 5.58 ± 0.45 %ID/g
tissue uptake at 0.5 h ([6]; tumor (UM-SCC-22B xenograft), 3.7 MBq, absence of unlabeled peptide, read-out: tumor uptake (tissue sampling, gamma-counting)): 4.58 ± 0.59 %ID/g
tissue uptake at 0.5 h ([6]; tumor (UM-SCC-22B xenograft), presence of 500 μg unlabeled peptide, read-out: tumor uptake (tissue sampling, gamma-counting), blocked): 0.88 ± 0.35 %ID/g
Structure (SMILES): CC(C)C[C@H](NC(=O)[C@@H](N)Cc1ccc(O)cc1)C(=O)N[C@@H](Cc1ccccc1)C(=O)N[C@@H](CO)C(=O)N[C@H](C(=O)N[C@@H](Cc1c[nH]cn1)C(=O)N[C@@H](Cc1c[nH]c2ccccc12)C(=O)N1CCC[C@H]1C(=O)N1CCC[C@H]1C(=O)N[C@@H](CC(C)C)C(=O)N[C@@H](CCCCNC(=O)C(C)F)C(=O)N[C@@H](C)C(=O)O)C(C)C (some centres unmarked) [[^18F]FP-Met-pep1] (H-YLFSVHWPPLK(Propanoyl(2-F))A-OH)
cell uptake in presence of unlabeled Met-pep1 (blocking) (UM-SCC-22B cells [1]; 500 μg/well unlabeled Met-pep1 pre-incubated 15 min at 37°C): dramatic inhibition of cell uptake
cell uptake (percentage of added dose) (UM-SCC-22B cells [1]; 18.5 kBq (0.5 μCi)/well, 37°C, 30 min incubation (peak), gamma counter, mean ± SD, triplicate wells): 34.52 ± 1.34%
fraction of observed uptake due to internalization (UM-SCC-22B cells [2]): Approximately 2/3
tracer effluxed out of the cells (UM-SCC-22B cells [3]; 15 min): approximately 47%
radiotracer remained bound with the cells (UM-SCC-22B cells [3]; end of incubation (60 min)): about 36%
